Where only a bound is given, the exact number is not on record here.

The values below come from patent publication EP4653016A1, “CONJUGATE OF ERIBULIN DRUG” (SystImmune, Inc., priority 2023, dated 2024).

Assay in all cases: Cytotoxicity of compounds to tumor cell lines (MTS, 5 days)
Common to all, as to type: cell-based

The test system of assay [1] is A431(human epidermal carcinoma cells). The conditions noted are these: A-431, 120 h, A431, 5 days. As to the method:
(§1) In the present invention, various human-derived tumor cell lines (BxPC-3 (human orthotopic pancreatic adenocarcinoma cell), SW620 (human colon cancer cell), H1975 (human lung adenocarcinoma cell), HCC827 (human lung adenocarcinoma cell), FaDu (human pharyngeal squamous cell carcinoma cell) and A431(human epidermal carcinoma cells)) were used as experimental models to evaluate the cytotoxicity of compound to tumor cell lines. A certain number of tumor cells were seeded into a 96-well plate. After the cells adhered to the wall, gradient dilutions of tested compounds were added to the test cells, followed by incubation at 37 °C and 5% CO2 for 5 days. Cell viability was measured using MTS, and the inhibitory effect of the control compounds and the tested compounds on the tumor cell lines was evaluated byIC50. The compound with a starting concentration of 4000 nM was diluted 7 folds, with a total of 8 concentration points. […] Table 5: In vitro pharmacodynamic activity of control compounds and tested compounds in human-derived tumor cell lines BxPC-3, SW620 and H1975: […]

For assay [2], the system named is FaDu (human pharyngeal squamous cell carcinoma cell). The conditions noted are these: 120 h. As for the experimental part: as §1
In assay [3] the test system is SW620 (human colon cancer cell). As to conditions: SW-620, 120 h, SW620, 5 days. As for the experimental part:
as §1

In assay [4] the test system is HCC827 (human lung adenocarcinoma cell). As to conditions: 120 h, HCC827, 5 days. As to the method:
as §1

In assay [5] the test system is BxPC-3 (human orthotopic pancreatic adenocarcinoma cell). As to conditions: for IC50: Homo sapiens, 120 h, BxPC-3, 5 days, MTS; for anti-tumor effects: in words, BxPC-3, SW620, H1975, HCC827, FaDu and A431 cell models. As to the method: as §1
Assay [6] has as its system H1975 (human lung adenocarcinoma cell). As to conditions: NCI-H1975, 120 h, H1975, 5 days. As to the method: as §1

Turning to `C=C1C[C@@H]2CC[C@@]34C[C@H]5O[C@H]6[C@@H](O3)[C@H]3O[C@H](CC[C@@H]3O[C@H]6[C@H]5O4)CC(=O)C[C@@H]3[C@@H](OC)[C@@H](C[C@H](O)CNC)O[C@H]3C[C@H]3O[C@@H](CC[C@@H]1O2)C[C@@H](C)C3=C` [D-2], the IC50 in assay [1] was found to be 0.02 nM; in assay [2], 0.37 nM; in assay [3], 1.25 nM; in assay [4], 0.025 nM; in assay [5], 0.03 nM; in assay [6] it was 0.25 nM.
On to `C=C1C[C@@H]2CC[C@@]34C[C@H]5O[C@H]6[C@@H](O3)[C@H]3O[C@H](CC[C@@H]3O[C@H]6[C@H]5O4)CC(=O)C[C@@H]3[C@@H](OC)[C@@H](C[C@H](O)CN(C)C(=O)OC(C)(C)C)O[C@H]3C[C@H]3O[C@@H](CC[C@@H]1O2)C[C@@H](C)C3=C` [D-3], for which the IC50 in assay [1], in assay [2], in assay [3], in assay [4], in assay [5] and in assay [6] was under 0.005 nM each time. Further, the anti-tumor effects result in assay [5] was “the best effects”.
Turning to `C=C1C[C@@H]2CC[C@@]34C[C@H]5O[C@H]6[C@@H](O3)[C@H]3O[C@H](CC[C@@H]3O[C@H]6[C@H]5O4)CC(=O)C[C@@H]3[C@@H](OC)[C@@H](C[C@H](O)CN)O[C@H]3C[C@H]3O[C@@H](CC[C@@H]1O2)C[C@@H](C)C3=C` [D-4(eribulin), eribulin], the IC50 in assay [1] stood at 0.03 nM; in assay [2] it was 0.73 nM; in assay [3] it was 2.56 nM; in assay [4] it was 0.05 nM; in assay [5], 0.06 nM; in assay [6], 0.39 nM.
As to `C=CCOC(=O)N(C)C[C@@H](O)C[C@H]1O[C@H]2C[C@H]3O[C@@H](CC[C@@H]4O[C@@H](CC[C@@]56C[C@H]7O[C@H]8[C@@H](O5)[C@H]5O[C@H](CC[C@@H]5O[C@H]8[C@H]7O6)CC(=O)C[C@@H]2[C@H]1OC)CC4=C)C[C@@H](C)C3=C` [D-7], the IC50 in assay [1] is under 0.005 nM; in assay [2] it was 0.01 nM; in assay [3], under 0.005 nM; in assay [4], under 0.005 nM; in assay [5], under 0.005 nM; in assay [6], 0.01 nM. The anti-tumor effects entry in assay [5] is “the best effects”.
Take `C=C1C[C@@H]2CC[C@@]34C[C@H]5O[C@H]6[C@@H](O3)[C@H]3O[C@H](CC[C@@H]3O[C@H]6[C@H]5O4)CC(=O)C[C@@H]3[C@@H](OC)[C@@H](C[C@H](O)CN(C)C(=O)OCc4ccccc4)O[C@H]3C[C@H]3O[C@@H](CC[C@@H]1O2)C[C@@H](C)C3=C` [D-8]: the IC50 in assay [1], in assay [2], in assay [3], in assay [4], in assay [5] and in assay [6] was under 0.005 nM each time. Further, in assay [5], the anti-tumor effects entry was “the best effects”.
As for `C=C1C[C@@H]2CC[C@@]34C[C@H]5O[C@H]6[C@@H](O3)[C@H]3O[C@H](CC[C@@H]3O[C@H]6[C@H]5O4)CC(=O)C[C@@H]3[C@@H](OC)[C@@H](C[C@H](O)CN(C)C(=O)c4ccccc4)O[C@H]3C[C@H]3O[C@@H](CC[C@@H]1O2)C[C@@H](C)C3=C` [D-9], the IC50 in assay [1], in assay [2], in assay [3], in assay [4], in assay [5] and in assay [6] was under 0.005 nM each time. Also, the anti-tumor effects entry in assay [5] is “the best effects”.
On to `C=C1C[C@@H]2CC[C@@]34C[C@H]5O[C@H]6[C@@H](O3)[C@H]3O[C@H](CC[C@@H]3O[C@H]6[C@H]5O4)CC(=O)C[C@@H]3[C@@H](OC)[C@@H](C[C@H](O)CN(C)C(=O)C(C)C)O[C@H]3C[C@H]3O[C@@H](CC[C@@H]1O2)C[C@@H](C)C3=C` [D-11], for which the IC50 worked out at 0.02 nM in assay [1]; 0.08 nM in assay [2]; 0.15 nM in assay [3]; 0.01 nM in assay [4]; 0.01 nM in assay [5]; 0.06 nM in assay [6].
Consider `C=C1C[C@@H]2CC[C@@]34C[C@H]5O[C@H]6[C@@H](O3)[C@H]3O[C@H](CC[C@@H]3O[C@H]6[C@H]5O4)CC(=O)C[C@@H]3[C@@H](OC)[C@@H](C[C@H](O)CN(C)C(=O)C(C)(C)C)O[C@H]3C[C@H]3O[C@@H](CC[C@@H]1O2)C[C@@H](C)C3=C` [D-12], for which the IC50 in assay [1], in assay [2], in assay [3], in assay [4], in assay [5] and in assay [6] was under 0.005 nM in each case. Moreover, the anti-tumor effects entry in assay [5] was “the best effects”.
With `C=C1C[C@@H]2CC[C@@]34C[C@H]5O[C@H]6[C@@H](O3)[C@H]3O[C@H](CC[C@@H]3O[C@H]6[C@H]5O4)CC(=O)C[C@@H]3[C@@H](OC)[C@@H](C[C@H](O)CNC(=O)OC(C)(C)C)O[C@H]3C[C@H]3O[C@@H](CC[C@@H]1O2)C[C@@H](C)C3=C` [D-13], the half-inhibitory concentration (IC50) in assay [1], in assay [2], in assay [3], in assay [4], in assay [5] and in assay [6] was under 0.005 nM throughout. For the same compound, the anti-tumor effects entry in assay [5] is “the best effects”.
For `C=C1C[C@@H]2CC[C@@]34C[C@H]5O[C@H]6[C@@H](O3)[C@H]3O[C@H](CC[C@@H]3O[C@H]6[C@H]5O4)CC(=O)C[C@@H]3[C@@H](OC)[C@@H](C[C@H](O)CN(C)S(C)(=O)=O)O[C@H]3C[C@H]3O[C@@H](CC[C@@H]1O2)C[C@@H](C)C3=C` [D-14], the IC50 in assay [1] stood at 0.01 nM; in assay [2], 0.16 nM; in assay [3] it was 0.19 nM; in assay [4] it was 0.01 nM; in assay [5], 0.01 nM; in assay [6], 0.1 nM.
With `C=C1C[C@@H]2CC[C@@]34C[C@H]5O[C@H]6[C@@H](O3)[C@H]3O[C@H](CC[C@@H]3O[C@H]6[C@H]5O4)CC(=O)C[C@@H]3[C@@H](OC)[C@@H](C[C@H](O)CN(C)C(=O)C(F)F)O[C@H]3C[C@H]3O[C@@H](CC[C@@H]1O2)C[C@@H](C)C3=C` [D-15], the IC50 was determined as 0.02 nM in assay [1]; 0.33 nM in assay [2]; 0.69 nM in assay [3]; 0.02 nM in assay [4]; 0.03 nM in assay [5]; 0.14 nM in assay [6].
On to `C=C1C[C@@H]2CC[C@@]34C[C@H]5O[C@H]6[C@@H](O3)[C@H]3O[C@H](CC[C@@H]3O[C@H]6[C@H]5O4)CC(=O)C[C@@H]3[C@@H](OC)[C@@H](C[C@H](O)CNC(=O)[C@H]4C[C@@H](OC)C4)O[C@H]3C[C@H]3O[C@@H](CC[C@@H]1O2)C[C@@H](C)C3=C` [D-21], for which the IC50 in assay [1] amounted to 0.12 nM; in assay [2], 0.39 nM; in assay [3], 0.24 nM; in assay [4] it was 0.04 nM; in assay [5] it was 0.05 nM; in assay [6] it was 0.24 nM.
